Experimental data published in the supplement of paper PMC10949913.
Counter-ions that a name gives are not always drawn.

How the values were obtained:
NCI-H295R = assay: ExcessHSA synergy score with TAK-243; higher = less synergy (negative = synergistic); conditions: combined with: TAK-243 (MLN-7243) matrix, 9-point 1:2 dilution
Protocol: (§1)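 Each drug was tested at 9 points with 1:2 dilution; viability was read by CellTiter-Glo as in the single-agent screen. Synergy is scored as ExcessHSA (sum of excess over highest single agent; negative = synergy) and the Beta interaction parameter (<1 synergy).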

CU-ACC1 = assay: as above; conditions: combined with: TAK-243 (MLN-7243) matrix, 9-point 1:2 dilution
Protocol: as §1

## O=C(C[C@@H](C(F)F)n1ccc(F)n1)N1CCC(O)(Cn2cnc3c(cnn3-c3ccc(F)cc3)c2=O)CC1 [FT671]
NCI-H295R
  ExcessHSA synergy score with TAK-243: 431
CU-ACC1
  ExcessHSA synergy score with TAK-243: -97.6

## CC1=C(/C=C/C(C)=C/C=C/C(C)=C\C(=O)O)C(C)(C)CCC1 [Isotretinoin]
NCI-H295R
  ExcessHSA synergy score with TAK-243: 636
CU-ACC1
  ExcessHSA synergy score with TAK-243: 563

## CCN(C(=O)c1cc(F)ccc1Oc1cncnc1N1CC2(CCN(C[C@H]3CC[C@H](NS(=O)(=O)CC)CC3)CC2)C1)C(C)C [SNDX-5613]
NCI-H295R
  ExcessHSA synergy score with TAK-243: 50
CU-ACC1
  ExcessHSA synergy score with TAK-243: -82.8

## O=C1NC(=O)C(c2cnc3ccccn23)=C1c1cn2c3c(cc(F)cc13)CN(C(=O)N1CCCCC1)CC2
NCI-H295R
  ExcessHSA synergy score with TAK-243: 305
CU-ACC1
  ExcessHSA synergy score with TAK-243: 432

## NC(=O)c1c(NC(=O)COCc2cc(-c3cccs3)on2)sc2c1CCCC2
NCI-H295R
  ExcessHSA synergy score with TAK-243: 122
CU-ACC1
  ExcessHSA synergy score with TAK-243: 37.9

## C#CCC(Cc1cnc2nc(N)nc(N)c2n1)c1ccc(C(=O)N[C@@H](CCC(=O)O)C(=O)O)cc1 (stereo partly drawn) [Pralatrexate]
NCI-H295R
  ExcessHSA synergy score with TAK-243: -57.8
CU-ACC1
  ExcessHSA synergy score with TAK-243: 137

## Cc1nc2cccc(N)c2c(=O)n1C1CCC(=O)NC1=O (stereo not drawn) [Avadomide]
NCI-H295R
  ExcessHSA synergy score with TAK-243: 1030
CU-ACC1
  ExcessHSA synergy score with TAK-243: -213

## C=CCn1c(=O)c2cnc(Nc3ccc(N4CCN(C)CC4)cc3)nc2n1-c1cccc(C(C)(C)O)n1 [MK-1775]
NCI-H295R
  ExcessHSA synergy score with TAK-243: 169
CU-ACC1
  ExcessHSA synergy score with TAK-243: 295

## CN(Cc1cnc2nc(N)nc(N)c2n1)c1ccc(C(=O)N[C@@H](CCC(=O)O)C(=O)O)cc1 [Methotrexate]
NCI-H295R
  ExcessHSA synergy score with TAK-243: 591
CU-ACC1
  ExcessHSA synergy score with TAK-243: 544

## COC1CCC(n2c([C@@H]3CCCC(=O)N3c3ccc(F)c(F)c3)nc3cc(-c4c(C)noc4C)ccc32)CC1 (stereo partly drawn) [CBP/p300-IN-4]
NCI-H295R
  ExcessHSA synergy score with TAK-243: -244
CU-ACC1
  ExcessHSA synergy score with TAK-243: -96.9

## CC1(C)CCC2(CC1)N[C@@H](C(=O)N[C@@H]1CC[C@@H](C(N)=O)OC1)[C@H](c1ccnc(Cl)c1F)[C@]21C(=O)Nc2cc(Cl)ccc21 [Milademetan]
NCI-H295R
  ExcessHSA synergy score with TAK-243: -111
CU-ACC1
  ExcessHSA synergy score with TAK-243: -380

## CCCCCCCCc1ccc(CCC(N)(CO)CO)cc1 [Fingolimod hydrochloride]
NCI-H295R
  ExcessHSA synergy score with TAK-243: 127
CU-ACC1
  ExcessHSA synergy score with TAK-243: -48.2

## COc1c(OCCCN2CCOCC2)ccc2c3n(c(=NC(=O)c4cnc(N)nc4)nc12)CCN3 [Copanlisib]
NCI-H295R
  ExcessHSA synergy score with TAK-243: 87
CU-ACC1
  ExcessHSA synergy score with TAK-243: 70.4

## CO[C@H]1/C=C/C[C@H](C)[C@@H](C)S(=O)(=O)NC(=O)c2ccc3c(c2)N(C[C@@H]2CC[C@H]21)C[C@@]1(CCCc2cc(Cl)ccc21)CO3 [AMG-176]
NCI-H295R
  ExcessHSA synergy score with TAK-243: -202
CU-ACC1
  ExcessHSA synergy score with TAK-243: -10.7

## NC(=O)/C(=C/n1cnc(-c2cc(C(F)(F)F)cc(C(F)(F)F)c2)n1)c1cncnc1 [Eltanexor]
NCI-H295R
  ExcessHSA synergy score with TAK-243: -429
CU-ACC1
  ExcessHSA synergy score with TAK-243: -817

## Cc1[nH]c2ccc(F)cc2c1-c1nc2c3cccnc3c3ncccc3c2[nH]1 [APTO-253]
NCI-H295R
  ExcessHSA synergy score with TAK-243: 586
CU-ACC1
  ExcessHSA synergy score with TAK-243: 410

## CC1(C)CC[C@]2(NC(=O)C(C)(F)F)CC[C@]3(C)[C@H](C(=O)C=C4[C@@]5(C)C=C(C#N)C(=O)C(C)(C)[C@@H]5CC[C@]43C)[C@@H]2C1 [Omaveloxolone (RTA-408)]
NCI-H295R
  ExcessHSA synergy score with TAK-243: 323
CU-ACC1
  ExcessHSA synergy score with TAK-243: 367

## CN1C(=O)[C@@H](NC(=O)c2n[nH]c(Cc3ccccc3)n2)COc2ccccc21
NCI-H295R
  ExcessHSA synergy score with TAK-243: 714
CU-ACC1
  ExcessHSA synergy score with TAK-243: 359

## Cc1cccc(CC(=O)N2CCc3c2ccc(-c2cn(C)c4ncnc(N)c24)c3F)n1
NCI-H295R
  ExcessHSA synergy score with TAK-243: 173
CU-ACC1
  ExcessHSA synergy score with TAK-243: -151

## O=C(O)CNC(=O)c1ncc(-c2cccc(Cl)c2)cc1O
NCI-H295R
  ExcessHSA synergy score with TAK-243: 289
CU-ACC1
  ExcessHSA synergy score with TAK-243: -199

## CCc1cc(C(N)=O)ccc1-n1nc(C(C)C)c2c(-n3cnc(-c4cnn(C)c4)c3)ccnc21 [Pimitespib]
NCI-H295R
  ExcessHSA synergy score with TAK-243: 586
CU-ACC1
  ExcessHSA synergy score with TAK-243: 959

## C[C@H]1CCN1c1nc(N2C[C@@H]3[C@@H](CC(=O)O)[C@@H]3C2)cc(C(F)(F)F)n1 [Ketohexokinase inhibitor 1]
NCI-H295R
  ExcessHSA synergy score with TAK-243: 49.1
CU-ACC1
  ExcessHSA synergy score with TAK-243: -31.2

## NS(=O)(=O)OC[C@@H]1C[C@@H](n2ccc3c(N[C@H]4CCc5ccccc54)ncnc32)C[C@@H]1O [MLN-4924]
NCI-H295R
  ExcessHSA synergy score with TAK-243: -344
CU-ACC1
  ExcessHSA synergy score with TAK-243: -111

## Nc1ccn([C@@H]2O[C@H](CO)[C@@H](O)C2(F)F)c(=O)n1 [Gemcitabine]
NCI-H295R
  ExcessHSA synergy score with TAK-243: 236
CU-ACC1
  ExcessHSA synergy score with TAK-243: -457

## O=C(c1cc(-c2cc3c(cc2C(=O)N2Cc4ccccc4CC2CN2CCOCC2)OCO3)n2c1CCCC2)N(c1ccccc1)c1ccc(O)cc1 (stereo not drawn)
NCI-H295R
  ExcessHSA synergy score with TAK-243: -903
CU-ACC1
  ExcessHSA synergy score with TAK-243: -937

## CN(C)C/C=C/C(=O)Nc1ccc(C(=O)Nc2cccc(Nc3ncc(Cl)c(-c4c[nH]c5ccccc45)n3)c2)cc1 [THZ1]
NCI-H295R
  ExcessHSA synergy score with TAK-243: -128
CU-ACC1
  ExcessHSA synergy score with TAK-243: -55.8

## O=C(c1cc(Cc2n[nH]c(=O)c3ccccc23)ccc1F)N1CCN(C(=O)C2CC2)CC1 [Olaparib]
NCI-H295R
  ExcessHSA synergy score with TAK-243: 859
CU-ACC1
  ExcessHSA synergy score with TAK-243: 468

## CC(C)n1c(=O)n(C)c2cnc3cc(F)c(-c4ccc(OCCCN5CCCCC5)nc4)cc3c21 [AZD-1390]
NCI-H295R
  ExcessHSA synergy score with TAK-243: 286
CU-ACC1
  ExcessHSA synergy score with TAK-243: 697

## CCOC(=O)c1ccc(C#Cc2ccc3c(c2)C(C)(C)CCS3)nc1 [Tazarotene]
NCI-H295R
  ExcessHSA synergy score with TAK-243: 136
CU-ACC1
  ExcessHSA synergy score with TAK-243: 230

## Cc1[nH]c2ccccc2c1CCNCc1ccc(/C=C/C(=O)NO)cc1 [Panobinostat]
NCI-H295R
  ExcessHSA synergy score with TAK-243: -23.3
CU-ACC1
  ExcessHSA synergy score with TAK-243: 181

## C=CC(=O)N1CC/C(=C\c2ccc(F)c([N+](=O)[O-])c2)C(=O)/C(=C/c2ccc(F)c([N+](=O)[O-])c2)C1 [VLX-1570]
NCI-H295R
  ExcessHSA synergy score with TAK-243: -147
CU-ACC1
  ExcessHSA synergy score with TAK-243: 79.8

## CC1(C)CCC(CN2CCN(c3ccc(C(=O)NS(=O)(=O)c4ccc(NCC5CCOCC5)c([N+](=O)[O-])c4)c(Oc4cnc5[nH]ccc5c4)c3)CC2)=C(c2ccc(Cl)cc2)C1 [Venetoclax (ABT-199)]
NCI-H295R
  ExcessHSA synergy score with TAK-243: -424
CU-ACC1
  ExcessHSA synergy score with TAK-243: -249

## Cc1nc(=O)c2cc(CN(C)c3ccc(C(=O)N[C@@H](CCC(=O)O)C(=O)O)s3)ccc2[nH]1 [Raltitrexed]
NCI-H295R
  ExcessHSA synergy score with TAK-243: -54.1
CU-ACC1
  ExcessHSA synergy score with TAK-243: -398

## CO[C@H]1CN(C)C(=O)c2cc(NC(=O)NC(C)C)ccc2OC[C@H](C)N(Cc2ccc(-c3ccccn3)cc2)C[C@@H]1C [BD98]
NCI-H295R
  ExcessHSA synergy score with TAK-243: -760
CU-ACC1
  ExcessHSA synergy score with TAK-243: -213

## O=C(c1ccc(F)c(F)c1Nc1ccc(I)cc1F)N1CC(O)([C@@H]2CCCCN2)C1 [Cobimetinib]
NCI-H295R
  ExcessHSA synergy score with TAK-243: 819
CU-ACC1
  ExcessHSA synergy score with TAK-243: 450

## CO[C@H]1C[C@@H]2CC[C@@H](C)[C@@](O)(O2)C(=O)C(=O)N2CCCC[C@H]2C(=O)O[C@H]([C@H](C)C[C@@H]2CC[C@@H](OCCO)[C@H](OC)C2)CC(=O)[C@H](C)/C=C(\C)[C@@H](O)[C@@H](OC)C(=O)[C@H](C)C[C@H](C)/C=C/C=C/C=C/1C [Everolimus]
NCI-H295R
  ExcessHSA synergy score with TAK-243: -1040
CU-ACC1
  ExcessHSA synergy score with TAK-243: -885

## N[C@H]1CC[C@H](N[C@@H]2C[C@H]2c2ccccc2)CC1 [ORY-1001]
NCI-H295R
  ExcessHSA synergy score with TAK-243: -493
CU-ACC1
  ExcessHSA synergy score with TAK-243: -384

## C/C=C(/C)C(=O)O[C@H]1C(C)=C2[C@H]([C@@H]1OC(=O)CCCCCCC)[C@@](C)(OC(C)=O)C[C@H](OC(=O)CCC)[C@@]1(O)[C@H]2OC(=O)[C@@]1(C)O [Thapsigargin]
NCI-H295R
  ExcessHSA synergy score with TAK-243: -409
CU-ACC1
  ExcessHSA synergy score with TAK-243: -443

## Cc1cc(C(=O)CN2CCCCC2)c(C)n1-c1ccc(Cl)cc1 [IU1-47]
NCI-H295R
  ExcessHSA synergy score with TAK-243: 125
CU-ACC1
  ExcessHSA synergy score with TAK-243: -58.7

## Cc1nc2ccc(F)cc2n1-c1nc(N)c(F)c(Nc2ccc(C(F)(F)F)cc2)n1 [PTC596]
NCI-H295R
  ExcessHSA synergy score with TAK-243: -3.1
CU-ACC1
  ExcessHSA synergy score with TAK-243: -119

## Cc1nc(-c2nc(-c3ccc(OC(F)(F)F)cc3)no2)nn1Cc1cccc(N2CCC(S(C)(=O)=O)CC2)c1
NCI-H295R
  ExcessHSA synergy score with TAK-243: 691
CU-ACC1
  ExcessHSA synergy score with TAK-243: 422

## C=CCNc1nc(N)c(C(=O)c2ccc(F)s2)s1 [TT-10]
NCI-H295R
  ExcessHSA synergy score with TAK-243: 922
CU-ACC1
  ExcessHSA synergy score with TAK-243: 584

## CS(=O)(=O)c1ccc(Oc2cc(F)cc(C#N)c2)c2c1[C@H](O)[C@H](F)[C@@H]2F [PT-2977]
NCI-H295R
  ExcessHSA synergy score with TAK-243: 801
CU-ACC1
  ExcessHSA synergy score with TAK-243: 217

## CCc1cnn2c(NCc3ccc[n+]([O-])c3)cc(N3CCCC[C@H]3CCO)nc12 [Dinaciclib]
NCI-H295R
  ExcessHSA synergy score with TAK-243: 170
CU-ACC1
  ExcessHSA synergy score with TAK-243: 86.7

## CC1(C)CCC(c2ccc(Cl)cc2)=C(CN2CCN(c3ccc(C(=O)NS(=O)(=O)c4ccc(N[C@H](CCN5CCOCC5)CSc5ccccc5)c(S(=O)(=O)C(F)(F)F)c4)cc3)CC2)C1 [Navitoclax]
NCI-H295R
  ExcessHSA synergy score with TAK-243: -505
CU-ACC1
  ExcessHSA synergy score with TAK-243: -563

## C[C@H]1N=C(N(C)C)N=C(N)N1 [Imeglimin]
NCI-H295R
  ExcessHSA synergy score with TAK-243: 50.3
CU-ACC1
  ExcessHSA synergy score with TAK-243: -159

## COc1cc2c(c(OC)n1)[C@]1(O)[C@H](O)[C@H](CN(C)C)[C@@H](c3ccccc3)[C@]1(c1ccc(C#N)cc1)O2 [Zotatifin]
NCI-H295R
  ExcessHSA synergy score with TAK-243: 686
CU-ACC1
  ExcessHSA synergy score with TAK-243: 1170

## Nc1cccc2c1CN(C1CCC(=O)NC1=O)C2=O (stereo not drawn) [Lenalidomide]
NCI-H295R
  ExcessHSA synergy score with TAK-243: 364
CU-ACC1
  ExcessHSA synergy score with TAK-243: 337

## O=C(CCCCCCNC(=O)c1cnc(N(c2ccccc2)c2ccccc2Cl)nc1)NO [Citarinostat (ACY-241)]
NCI-H295R
  ExcessHSA synergy score with TAK-243: -290
CU-ACC1
  ExcessHSA synergy score with TAK-243: -47.7
